Calls of active or inactive are those of the source. The rule behind the calls is not given here.
Experiments:
Androgen receptor = molecular target: T1, Androgen receptor (Homo sapiens, UniProt P10275); assay: Agonist activity at AR (unknown origin) expressed in human LNCaP cells incubated for 20 hrs by luciferase reporter gene assay; format: cell-based
T1 sequence (P10275 whole entry): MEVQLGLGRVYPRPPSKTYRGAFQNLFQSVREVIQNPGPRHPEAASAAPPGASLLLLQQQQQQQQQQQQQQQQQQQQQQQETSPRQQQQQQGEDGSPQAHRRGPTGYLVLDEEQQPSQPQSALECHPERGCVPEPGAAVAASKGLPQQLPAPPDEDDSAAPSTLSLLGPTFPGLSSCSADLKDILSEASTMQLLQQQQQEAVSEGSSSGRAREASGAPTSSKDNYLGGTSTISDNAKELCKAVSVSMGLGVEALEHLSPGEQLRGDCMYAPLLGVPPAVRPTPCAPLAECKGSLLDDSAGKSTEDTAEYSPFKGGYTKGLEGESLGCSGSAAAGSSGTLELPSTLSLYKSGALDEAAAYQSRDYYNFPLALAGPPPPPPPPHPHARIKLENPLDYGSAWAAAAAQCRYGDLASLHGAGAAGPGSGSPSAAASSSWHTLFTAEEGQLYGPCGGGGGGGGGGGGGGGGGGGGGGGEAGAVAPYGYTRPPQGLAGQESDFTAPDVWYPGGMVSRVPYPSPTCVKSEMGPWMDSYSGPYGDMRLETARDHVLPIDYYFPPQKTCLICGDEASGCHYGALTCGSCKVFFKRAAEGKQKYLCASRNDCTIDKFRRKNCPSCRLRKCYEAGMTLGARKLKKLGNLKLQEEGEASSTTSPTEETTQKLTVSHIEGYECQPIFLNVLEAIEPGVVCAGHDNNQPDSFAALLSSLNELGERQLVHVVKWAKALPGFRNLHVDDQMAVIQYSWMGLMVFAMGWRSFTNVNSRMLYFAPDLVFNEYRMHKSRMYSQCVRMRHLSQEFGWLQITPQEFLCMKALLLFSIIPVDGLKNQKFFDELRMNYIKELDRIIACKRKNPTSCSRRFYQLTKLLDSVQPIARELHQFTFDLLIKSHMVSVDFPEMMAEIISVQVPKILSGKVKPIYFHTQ

[1] = Cmax in rat at 5 mg/kg, po; format: ADME, organism-based; design: dose 5 mg/kg, route oral; conditions: in vivo
Glucocorticoid receptor [2] = molecular target: T2, Glucocorticoid receptor (Homo sapiens, UniProt P04150); assay: Antagonist activity at human GR expressed in CHO-K1 cells assessed as reduction in dexamethasone-induced response incubated for 20 hrs by luciferase reporter gene assay; format: cell-based
T2 sequence (P04150 whole entry): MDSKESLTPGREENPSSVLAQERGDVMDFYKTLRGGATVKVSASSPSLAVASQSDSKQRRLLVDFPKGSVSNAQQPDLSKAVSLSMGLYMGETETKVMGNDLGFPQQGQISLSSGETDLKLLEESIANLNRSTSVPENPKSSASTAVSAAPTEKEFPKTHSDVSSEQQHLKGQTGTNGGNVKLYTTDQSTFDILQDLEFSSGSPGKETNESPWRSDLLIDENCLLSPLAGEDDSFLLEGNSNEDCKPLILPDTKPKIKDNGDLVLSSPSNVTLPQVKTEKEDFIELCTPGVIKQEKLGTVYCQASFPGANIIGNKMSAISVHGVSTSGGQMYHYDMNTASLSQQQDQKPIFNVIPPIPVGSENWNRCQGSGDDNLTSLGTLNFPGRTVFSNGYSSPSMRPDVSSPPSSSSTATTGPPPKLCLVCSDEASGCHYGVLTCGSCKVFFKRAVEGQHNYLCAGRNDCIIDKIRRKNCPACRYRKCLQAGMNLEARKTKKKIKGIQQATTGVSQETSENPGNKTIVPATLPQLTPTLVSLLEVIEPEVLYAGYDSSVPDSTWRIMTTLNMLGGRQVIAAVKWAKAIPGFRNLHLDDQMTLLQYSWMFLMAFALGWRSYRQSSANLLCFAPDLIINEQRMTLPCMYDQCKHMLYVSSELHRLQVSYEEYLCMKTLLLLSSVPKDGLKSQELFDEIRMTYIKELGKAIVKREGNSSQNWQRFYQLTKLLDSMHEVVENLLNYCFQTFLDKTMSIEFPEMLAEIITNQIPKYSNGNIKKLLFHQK

[3] = Half life in rat at 0.5 mg/kg, iv; format: ADME, organism-based; conditions: in vivo
[4] = AUC in rat at 5 mg/kg, po; format: ADME, organism-based; conditions: in vivo
[5] = Oral bioavailability in rat at 5 mg/kg; format: ADME, organism-based; conditions: in vivo
[6] = Clearance in rat at 0.5 mg/kg, iv; format: ADME, organism-based; conditions: in vivo
[7] = molecular target: T3, glucocorticoid receptor (GR) (Homo sapiens, UniProt P04150); assay: Agonist activity at human GR expressed in CHO-K1 cells incubated for 20 hrs by luciferase reporter gene assay relative to dexamethasone; format: cell-based; conditions: CHO-K1 cells expressing human GR
T3 sequence (P04150 whole entry): T2 sequence (P04150 whole entry)

[8] = Volume of distribution at steady state in rat at 0.5 mg/kg, iv; format: ADME, organism-based; conditions: in vivo, read-out: Vdss
androgen receptor (AR) = molecular target: T4, androgen receptor (AR) (Homo sapiens, UniProt P10275); assay: Agonist activity at AR (unknown origin) expressed in human LNCaP cells incubated for 20 hrs by luciferase reporter gene assay relative to mifepristone; format: cell-based; conditions: human LNCaP cells expressing AR
T4 sequence (P10275 whole entry): T1 sequence (P10275 whole entry)

Glucocorticoid receptor [9] = molecular target: T2, Glucocorticoid receptor; assay: Agonist activity at human GR expressed in CHO-K1 cells incubated for 20 hrs by luciferase reporter gene assay; format: cell-based
Cytochrome P450 3A4 = Cytochrome P450 3A4 (Homo sapiens, UniProt P08684); assay: Inhibition of CYP3A4 (unknown origin) using midazolam as substrate; format: ADME
Sequence of Cytochrome P450 3A4 (P08684 whole entry): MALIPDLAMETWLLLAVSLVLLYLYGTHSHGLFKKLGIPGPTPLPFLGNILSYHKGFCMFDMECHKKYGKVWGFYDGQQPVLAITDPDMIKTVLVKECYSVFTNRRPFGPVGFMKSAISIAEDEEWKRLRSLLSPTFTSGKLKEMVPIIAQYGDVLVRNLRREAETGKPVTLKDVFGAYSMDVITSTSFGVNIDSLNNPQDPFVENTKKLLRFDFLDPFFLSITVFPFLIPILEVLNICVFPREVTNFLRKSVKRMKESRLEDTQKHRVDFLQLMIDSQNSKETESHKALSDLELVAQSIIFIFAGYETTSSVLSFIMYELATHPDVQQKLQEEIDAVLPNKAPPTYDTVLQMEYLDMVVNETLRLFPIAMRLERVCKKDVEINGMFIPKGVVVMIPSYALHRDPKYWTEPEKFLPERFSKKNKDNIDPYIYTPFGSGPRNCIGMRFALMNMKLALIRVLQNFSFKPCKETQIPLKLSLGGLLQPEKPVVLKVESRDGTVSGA

Cytochrome P450 2C8 = molecular target: T5, Cytochrome P450 2C8 (Homo sapiens, UniProt P10632); assay: Inhibition of CYP2C8 (unknown origin) using […] as substrate; format: ADME
T5 sequence (P10632 whole entry): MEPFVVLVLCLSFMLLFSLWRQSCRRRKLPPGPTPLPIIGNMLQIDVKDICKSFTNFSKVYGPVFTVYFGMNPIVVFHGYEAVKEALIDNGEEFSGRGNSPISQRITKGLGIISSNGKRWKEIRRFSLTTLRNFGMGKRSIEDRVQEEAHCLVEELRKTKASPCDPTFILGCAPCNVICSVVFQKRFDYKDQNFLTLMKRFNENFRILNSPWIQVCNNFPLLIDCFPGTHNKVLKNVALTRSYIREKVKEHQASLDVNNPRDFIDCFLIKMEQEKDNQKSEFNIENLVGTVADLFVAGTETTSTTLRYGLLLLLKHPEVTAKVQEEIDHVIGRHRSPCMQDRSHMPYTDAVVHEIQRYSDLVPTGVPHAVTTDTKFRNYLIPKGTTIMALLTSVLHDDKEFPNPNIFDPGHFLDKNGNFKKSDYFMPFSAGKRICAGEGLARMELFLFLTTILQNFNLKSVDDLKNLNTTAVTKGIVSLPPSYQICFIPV

Cytochrome P450 2C9 = Cytochrome P450 2C9 (Homo sapiens, UniProt P11712); assay: Inhibition of CYP2C9 (unknown origin) using […] as substrate; format: ADME
Sequence of Cytochrome P450 2C9 (P11712 whole entry): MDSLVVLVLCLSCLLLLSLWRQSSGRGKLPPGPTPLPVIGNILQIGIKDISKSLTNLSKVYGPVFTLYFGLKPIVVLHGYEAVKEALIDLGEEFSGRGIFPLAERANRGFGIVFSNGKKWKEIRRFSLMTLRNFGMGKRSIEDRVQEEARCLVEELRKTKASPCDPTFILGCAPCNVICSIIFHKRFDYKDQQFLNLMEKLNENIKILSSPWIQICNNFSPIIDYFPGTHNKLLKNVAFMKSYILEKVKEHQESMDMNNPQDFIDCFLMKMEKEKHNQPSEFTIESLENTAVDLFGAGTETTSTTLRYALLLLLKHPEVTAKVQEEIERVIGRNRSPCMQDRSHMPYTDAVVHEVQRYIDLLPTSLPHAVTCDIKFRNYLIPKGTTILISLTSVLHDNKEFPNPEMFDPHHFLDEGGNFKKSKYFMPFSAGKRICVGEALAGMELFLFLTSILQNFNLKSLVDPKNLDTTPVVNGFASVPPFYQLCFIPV

OVCAR-5 = conditions: Homo sapiens, 100 mg/kg

`CC(C)N(C)c1ccc([C@H]2C[C@@]3(C)[C@@H](CC[C@@]3(O)C#CC(C)(C)C)[C@@H]3CCC4=CC(=O)CCC4=C32)cc1` showed an EC50 (Androgen receptor) greater than 2500 nM, a Cmax [1] of 59 ng/mL and an IC50 (Glucocorticoid receptor [2]) of 43 nM. The half-life [3] was 1.5 h, the AUC [4] was 290 ng·h/mL and the bioavailability [5] was 23%. It also gave a clearance [6] of 66.7 mL/min/kg, an Emax at 20 h [7] of 1.7% and a Vd [8] of 4.7 L/kg. It also gave an Emax at 20 h (androgen receptor (AR)) of 8.2% and an EC50 (Glucocorticoid receptor [9]) greater than 2500 nM.

In the case of `CN(C)c1ccc([C@H]2C[C@@]3(C)[C@@H](CC[C@@]3(O)C#CC(C)(C)C)[C@@H]3CCC4=CC(=O)CCC4=C32)cc1`, the EC50 (Androgen receptor) is reported as greater than 2500 nM, the Cmax [1] is reported as 72 ng/mL and the IC50 (Cytochrome P450 3A4) is reported as 2900 nM. The IC50 (Glucocorticoid receptor [2]) was 14.6 nM, the half-life [3] was 1.9 h and the AUC [4] was 471 ng·h/mL. For the same compound, the bioavailability [5] was 37%, the IC50 (Cytochrome P450 2C8) was greater than 10000 nM and the clearance [6] was 66.7 mL/min/kg. The Emax at 20 h [7] was 1.4%, the Vd [8] was 4.9 L/kg and the Emax at 20 h (androgen receptor (AR)) was 13.4%. For the same compound, the IC50 (Cytochrome P450 2C9) was greater than 10000 nM and the EC50 (Glucocorticoid receptor [9]) was greater than 2500 nM.

In the case of `Nc1ccn([C@@H]2O[C@H](CO)[C@@H](O)C2(F)F)c(=O)n1`, the TGI (OVCAR-5) is reported as “Active”.
